Test results taken from ChEMBL document CHEMBL4414548 (J Med Chem, 2019).

Tests used:
[1] = Efflux ratio of permeability in human Caco2; type: ADME, cell-based; settings: Caco-2
JAK2/TYK2 = JAK2/TYK2 (Homo sapiens, UniProt O60674+P29597); test: Inhibition of TYK2/JAK2 in IL23-stimulated human Kit225 cells by steady-glo luciferase assay
[2] = Half life in cynomolgus monkey liver microsomes; type: ADME, Macaca fascicularis, Microsome
[3] = target: Voltage-gated inwardly rectifying potassium channel KCNH2 (Homo sapiens, UniProt Q12809); test: Inhibition of human ERG by fluorescence polarization assay
[4] = Half life in human liver microsomes; type: ADME, Microsome
[5] = target: T1, Non-receptor tyrosine-protein kinase TYK2 (Homo sapiens, UniProt P29597); test: Inhibition of fluorescein-labeled kinase tracer binding to His-TVMV-fused TYK2 JH2 domain (575 to 869 residues) (unknown origin) measured after 90 mins by HTRF assay
[6] = AUClast in mouse at 10 mg/kg, po after 7 hrs; type: ADME, organism-based; set-up: time < 7 hr, dose 10 mg/kg, route oral; settings: in vivo
[7] = Partition coefficient, log P of compound by HPLC analysis; type: physicochemical; settings: octanol/water
[8] = Half life in dog liver microsomes; type: ADME, Canis lupus familiaris, Microsome
JAK1/TYK2 = JAK1/TYK2 (Homo sapiens, UniProt P23458+P29597); test: Inhibition of TYK2/JAK1 in IFNalpha-stimulated human Kit225 cells by steady-glo luciferase assay
[9] = Half life in rat liver microsomes; type: ADME, Microsome
[10] = target: Mast/stem cell growth factor receptor Kit (Homo sapiens, UniProt P10721); test: Inhibition of cKIT (unknown origin)
[11] = Cmax in mouse at 10 mg/kg, po after 7 hrs; type: ADME, organism-based; set-up: dose 10 mg/kg, route oral; settings: in vivo
[12] = target: Non-receptor tyrosine-protein kinase TYK2 (Mus musculus, UniProt Q9R117); test: Inhibition of TYK2 JH2 domain in mouse whole blood assessed as inhibition of IFNalpha-induced STAT1 phosphorylation preincubated for 1 hr followed by IFNalpha stimulation and measured after 15 mins by fluorescence assay; type: tissue-based
[13] = target: T1, Non-receptor tyrosine-protein kinase TYK2; test: Inhibition of TYK2 JH2 domain in human whole blood assessed as inhibition of IFNalpha-induced STAT5 phosphorylation preincubated for 1 hr followed by IFNalpha stimulation and measured after 15 mins by fluorescence assay; type: tissue-based
[14] = Half life in mouse liver microsomes; type: ADME, Microsome
[15] = Permeability across apical to basolateral side in human Caco2 cells; type: ADME, cell-based; settings: Caco-2, read-out: permeability
[16] = Metabolic stability in rat liver microsomes assessed as parent compound remaining after 10 mins; type: ADME, Microsome; settings: read-out: Stability
[17] = Metabolic stability in mouse liver microsomes assessed as parent compound remaining after 10 mins; type: ADME, Microsome; settings: read-out: Stability
[18] = Metabolic stability in human liver microsomes assessed as parent compound remaining after 10 mins; type: ADME, Microsome; settings: read-out: Stability
[19] = target: 3',5'-cyclic-AMP phosphodiesterase 4D (Homo sapiens, UniProt Q08499); test: Inhibition of [3H]cAMP binding to recombinant human His-Tb fused PDE4D2 (86 to 413 residues) expressed in Escherichia coli using [3H]cAMP as substrate preincubated for 10 mins followed by [3H]cAMP addition and measured after 1 hr by scintillation proximity assay
JAK3/JAK1 = JAK3/JAK1 (Homo sapiens, UniProt P23458+P52333); test: Inhibition of JAK1/JAK3 (unknown origin) in IL-2 stimulated cells by cell based assay
[20] = target: Tyrosine-protein kinase JAK2 (Homo sapiens, UniProt O60674); test: Inhibition of JAK2 JH1 domain (unknown origin)
JAK2/JAK1 = JAK2/JAK1 (Homo sapiens, UniProt O60674+P23458); test: Inhibition of JAK1/JAK2 (unknown origin) in GM-CSF stimulated cells by cell based assay
[21] = target: T1, Non-receptor tyrosine-protein kinase TYK2; test: Inhibition of TYK2 JH1 domain (unknown origin)
[22] = target: Tyrosine-protein kinase JAK1 (Homo sapiens, UniProt P23458); test: Inhibition of JAK1 JH1 domain (unknown origin)
Chain of Tyrosine-protein kinase JAK1 (P23458 whole entry, the tested form may be a part): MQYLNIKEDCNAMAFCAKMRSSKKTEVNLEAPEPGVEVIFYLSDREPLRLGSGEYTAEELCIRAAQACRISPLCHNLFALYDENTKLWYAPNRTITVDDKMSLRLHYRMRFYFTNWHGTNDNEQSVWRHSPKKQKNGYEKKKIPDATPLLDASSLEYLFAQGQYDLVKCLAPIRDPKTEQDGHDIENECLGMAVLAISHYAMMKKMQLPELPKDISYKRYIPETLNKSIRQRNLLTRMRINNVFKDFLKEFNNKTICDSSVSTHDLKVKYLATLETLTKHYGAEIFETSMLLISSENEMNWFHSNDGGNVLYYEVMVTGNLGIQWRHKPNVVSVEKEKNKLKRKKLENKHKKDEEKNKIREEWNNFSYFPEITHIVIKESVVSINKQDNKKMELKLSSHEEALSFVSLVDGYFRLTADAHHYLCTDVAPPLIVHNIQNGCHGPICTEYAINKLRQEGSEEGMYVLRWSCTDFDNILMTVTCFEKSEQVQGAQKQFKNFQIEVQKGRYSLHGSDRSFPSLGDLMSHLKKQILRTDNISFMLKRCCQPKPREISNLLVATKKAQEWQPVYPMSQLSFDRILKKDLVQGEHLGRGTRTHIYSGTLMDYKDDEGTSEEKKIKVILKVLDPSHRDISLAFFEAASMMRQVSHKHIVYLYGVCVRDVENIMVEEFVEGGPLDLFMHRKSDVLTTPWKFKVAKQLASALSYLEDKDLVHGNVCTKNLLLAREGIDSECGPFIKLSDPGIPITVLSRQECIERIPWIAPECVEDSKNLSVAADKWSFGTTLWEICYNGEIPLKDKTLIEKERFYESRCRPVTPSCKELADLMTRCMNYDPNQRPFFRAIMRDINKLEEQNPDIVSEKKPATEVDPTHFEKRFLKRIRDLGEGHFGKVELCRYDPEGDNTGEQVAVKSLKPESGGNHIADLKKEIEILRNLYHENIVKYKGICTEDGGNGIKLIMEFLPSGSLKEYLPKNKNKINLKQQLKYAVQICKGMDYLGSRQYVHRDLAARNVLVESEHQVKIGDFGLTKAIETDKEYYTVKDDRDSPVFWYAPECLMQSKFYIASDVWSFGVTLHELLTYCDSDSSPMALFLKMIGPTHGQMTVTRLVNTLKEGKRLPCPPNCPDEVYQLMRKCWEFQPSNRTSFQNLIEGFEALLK

Chain of JAK3/JAK1 (P52333 whole entry, the tested form may be a part): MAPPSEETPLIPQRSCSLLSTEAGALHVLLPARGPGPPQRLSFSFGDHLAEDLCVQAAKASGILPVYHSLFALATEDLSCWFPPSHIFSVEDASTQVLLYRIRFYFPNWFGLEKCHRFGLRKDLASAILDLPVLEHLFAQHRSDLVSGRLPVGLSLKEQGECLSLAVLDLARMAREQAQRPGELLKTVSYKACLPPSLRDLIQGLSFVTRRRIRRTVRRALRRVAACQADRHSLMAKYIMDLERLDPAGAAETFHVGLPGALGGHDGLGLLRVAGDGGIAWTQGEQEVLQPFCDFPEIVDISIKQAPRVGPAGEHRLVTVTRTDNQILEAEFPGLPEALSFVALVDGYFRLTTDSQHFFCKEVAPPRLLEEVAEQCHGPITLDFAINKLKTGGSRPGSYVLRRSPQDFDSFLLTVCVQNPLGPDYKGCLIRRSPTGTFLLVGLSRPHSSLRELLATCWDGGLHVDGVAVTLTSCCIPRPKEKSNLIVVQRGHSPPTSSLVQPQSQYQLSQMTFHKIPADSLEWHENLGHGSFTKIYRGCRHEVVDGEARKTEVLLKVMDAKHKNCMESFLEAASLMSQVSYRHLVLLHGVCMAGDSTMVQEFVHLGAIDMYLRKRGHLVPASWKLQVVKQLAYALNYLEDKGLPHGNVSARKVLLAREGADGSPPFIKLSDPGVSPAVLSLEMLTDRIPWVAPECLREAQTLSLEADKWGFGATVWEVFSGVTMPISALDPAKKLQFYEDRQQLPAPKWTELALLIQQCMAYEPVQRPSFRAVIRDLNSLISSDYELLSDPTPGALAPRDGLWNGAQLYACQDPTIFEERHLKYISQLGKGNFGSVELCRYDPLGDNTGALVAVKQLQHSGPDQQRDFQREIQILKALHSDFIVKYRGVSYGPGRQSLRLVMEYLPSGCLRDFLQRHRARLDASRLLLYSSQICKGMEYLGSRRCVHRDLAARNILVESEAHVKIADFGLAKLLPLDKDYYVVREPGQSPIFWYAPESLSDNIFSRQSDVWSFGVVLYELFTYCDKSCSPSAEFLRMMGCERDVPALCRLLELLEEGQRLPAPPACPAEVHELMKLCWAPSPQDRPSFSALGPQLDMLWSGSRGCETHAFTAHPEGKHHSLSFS
Chain of JAK3/JAK1 (P23458 whole entry, the tested form may be a part): as the sequence (P23458 whole entry, the tested form may be a part) above
Chain of Mast/stem cell growth factor receptor Kit (P10721 whole entry): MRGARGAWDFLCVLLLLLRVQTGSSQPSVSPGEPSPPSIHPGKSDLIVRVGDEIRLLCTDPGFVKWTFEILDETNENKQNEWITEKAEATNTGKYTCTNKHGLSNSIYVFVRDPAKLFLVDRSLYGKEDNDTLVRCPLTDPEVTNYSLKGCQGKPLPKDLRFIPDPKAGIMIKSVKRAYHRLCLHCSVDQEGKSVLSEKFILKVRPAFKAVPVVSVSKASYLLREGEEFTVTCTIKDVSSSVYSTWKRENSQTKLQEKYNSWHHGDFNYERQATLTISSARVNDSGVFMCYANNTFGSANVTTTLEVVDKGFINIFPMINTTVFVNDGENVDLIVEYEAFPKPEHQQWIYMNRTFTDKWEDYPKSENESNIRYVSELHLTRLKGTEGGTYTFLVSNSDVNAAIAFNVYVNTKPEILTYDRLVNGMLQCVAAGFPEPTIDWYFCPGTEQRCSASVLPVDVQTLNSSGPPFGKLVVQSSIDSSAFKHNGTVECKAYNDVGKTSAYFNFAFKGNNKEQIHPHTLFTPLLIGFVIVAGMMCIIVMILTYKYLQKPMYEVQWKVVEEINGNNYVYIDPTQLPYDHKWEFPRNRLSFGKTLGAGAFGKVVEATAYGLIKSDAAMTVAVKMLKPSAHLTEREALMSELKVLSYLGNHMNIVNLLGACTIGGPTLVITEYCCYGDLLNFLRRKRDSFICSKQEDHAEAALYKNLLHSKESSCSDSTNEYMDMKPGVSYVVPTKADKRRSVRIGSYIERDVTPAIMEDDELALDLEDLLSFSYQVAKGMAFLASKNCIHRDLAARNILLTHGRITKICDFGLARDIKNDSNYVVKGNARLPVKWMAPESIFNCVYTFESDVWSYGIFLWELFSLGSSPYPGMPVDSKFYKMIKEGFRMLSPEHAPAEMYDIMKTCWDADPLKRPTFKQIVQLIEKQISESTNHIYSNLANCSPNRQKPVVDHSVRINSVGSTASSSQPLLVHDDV
T1 sequence (P29597 whole entry, the tested form may be a part): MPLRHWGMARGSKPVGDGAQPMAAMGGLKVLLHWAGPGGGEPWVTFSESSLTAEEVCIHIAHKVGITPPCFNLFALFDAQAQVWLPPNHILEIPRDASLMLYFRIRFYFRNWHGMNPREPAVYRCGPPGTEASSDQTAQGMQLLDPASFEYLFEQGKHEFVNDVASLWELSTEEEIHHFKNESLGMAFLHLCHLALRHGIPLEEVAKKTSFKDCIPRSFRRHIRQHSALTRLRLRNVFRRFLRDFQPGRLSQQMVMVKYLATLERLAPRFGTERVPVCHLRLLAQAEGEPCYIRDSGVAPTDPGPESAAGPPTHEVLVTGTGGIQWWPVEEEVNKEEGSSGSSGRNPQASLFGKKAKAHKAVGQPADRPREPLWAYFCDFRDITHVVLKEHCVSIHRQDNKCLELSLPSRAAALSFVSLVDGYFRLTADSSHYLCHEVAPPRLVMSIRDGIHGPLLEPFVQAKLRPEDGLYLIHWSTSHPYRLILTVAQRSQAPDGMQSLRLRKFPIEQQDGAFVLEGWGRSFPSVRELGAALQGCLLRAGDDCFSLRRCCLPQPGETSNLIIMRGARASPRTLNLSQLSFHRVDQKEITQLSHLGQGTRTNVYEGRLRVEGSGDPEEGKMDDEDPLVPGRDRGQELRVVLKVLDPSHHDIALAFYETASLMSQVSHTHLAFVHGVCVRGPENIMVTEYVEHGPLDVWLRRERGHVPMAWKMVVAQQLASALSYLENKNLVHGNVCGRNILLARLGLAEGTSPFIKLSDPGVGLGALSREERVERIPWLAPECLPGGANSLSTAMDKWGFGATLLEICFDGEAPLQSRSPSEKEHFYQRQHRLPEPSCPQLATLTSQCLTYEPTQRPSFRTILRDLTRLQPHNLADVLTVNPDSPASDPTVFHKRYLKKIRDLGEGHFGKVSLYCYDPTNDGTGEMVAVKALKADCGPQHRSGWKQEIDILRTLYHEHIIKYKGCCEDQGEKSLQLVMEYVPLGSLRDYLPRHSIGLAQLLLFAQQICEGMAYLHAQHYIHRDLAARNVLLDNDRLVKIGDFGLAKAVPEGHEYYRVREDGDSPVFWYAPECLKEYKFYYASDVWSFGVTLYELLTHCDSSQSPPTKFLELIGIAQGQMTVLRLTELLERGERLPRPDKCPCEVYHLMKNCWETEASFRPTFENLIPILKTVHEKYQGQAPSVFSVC
Chain of JAK1/TYK2 (P23458 whole entry): as the sequence (P23458 whole entry, the tested form may be a part) above
Chain of JAK1/TYK2 (P29597 whole entry): as the sequence (P29597 whole entry, the tested form may be a part) above

Compound	efflux ratio [1]	IC50 (JAK2/TYK2) [nM]	IC50 [5] [nM]	IC50 (JAK1/TYK2) [nM]	IC50 [10] [nM]	IC50 [13] [nM]	Papp A→B [15] [×10⁻⁶ cm/s]	also measured
CNC(=O)c1cnc(NC(=O)C2CC2)cc1Nc1ccccc1S(C)(=O)=O	29	430	1.6	390	> 2000	310	1.7	half-life [2]: 108 min; IC50 [3]: > 80000 nM; half-life [4]: > 120 min; AUC(0-t) at 7 h [6]: 0.56 µM·h; logP [7]: 1.89; half-life [8]: 34 min; half-life [9]: 115 min; Cmax [11]: 190 nM; IC50 [12]: 830 nM; half-life [14]: 10 min
CCS(=O)(=O)c1ccccc1Nc1cc(Nc2ccc(F)cn2)ncc1C(=O)NC	6	1900	8	1000	–	4400	5.3	remaining at 10 min [16]: 76%; remaining at 10 min [17]: 43%; remaining at 10 min [18]: 91%; IC50 [19]: 4600 nM
CNC(=O)c1cnc(Nc2ncccc2F)cc1Nc1ccccc1C(N)=O	–	1300	5.9	1800	–	–	–	–
CNC(=O)c1cnc(Nc2ccc(F)cn2)cc1Nc1ccccc1SC	0.5	330	1.8	240	–	3100	7.9	remaining at 10 min [16]: 9%; remaining at 10 min [17]: 30%; remaining at 10 min [18]: 36%; IC50 [19]: 4400 nM
CNC(=O)c1cnc(Nc2ccc(F)cn2)cc1Nc1ccccc1OC	0.4	310	5.2	510	–	3300	26.7	remaining at 10 min [16]: 28%; remaining at 10 min [17]: 35%; remaining at 10 min [18]: 52%; IC50 [19]: 9200 nM
CS(=O)(=O)c1ccccc1Nc1cc(Nc2ccc(F)cn2)ncc1C(N)=O	–	46	0.32	35	–	33	–	remaining at 10 min [16]: 3%; remaining at 10 min [17]: 80%; IC50 (JAK3/JAK1): 960 nM; IC50 [20]: 18 nM; remaining at 10 min [18]: 77%; IC50 (JAK2/JAK1): 260 nM; IC50 [21]: 42 nM; IC50 [12]: 83 nM; IC50 [22]: 43 nM
CNC(=O)c1cnc(Nc2ccccn2)cc1Nc1ccccc1C(N)=O	–	280	1.6	310	–	–	–	–
CN(C)C(=O)c1cnc(Nc2ccc(F)cn2)cc1Nc1ccccc1C(N)=O	–	11000	87	12000	–	–	–	IC50 (JAK3/JAK1): > 12500 nM; IC50 [20]: > 2000 nM; IC50 (JAK2/JAK1): > 12500 nM; IC50 [21]: > 2000 nM; IC50 [22]: > 2000 nM
NC(=O)c1ccccc1Nc1cc(Nc2ccc(F)cn2)ncc1C(=O)NC1CC1	–	3300	33	5600	–	–	–	IC50 (JAK3/JAK1): > 12500 nM; IC50 [20]: > 2000 nM; IC50 (JAK2/JAK1): > 12500 nM; IC50 [21]: > 2000 nM; IC50 [22]: > 2000 nM
CCCC(=O)Nc1cc(Nc2ccccc2S(C)(=O)=O)c(C(=O)NC)cn1	–	2000	–	2700	> 2000	2500	–	–
CNC(=O)c1cnc(Nc2ccc(N3CCOCC3)cn2)cc1Nc1ccccc1S(C)(=O)=O	> 26	71	–	59	> 2000	58	< 1.5	IC50 [3]: 40000 nM
CNC(=O)c1cnc(Nc2ccccn2)cc1Nc1ccccc1S(C)(=O)=O	9.8	71	0.95	57	630	250	10.2	half-life [2]: 3 min; IC50 [3]: 36000 nM; half-life [4]: 53 min; AUC(0-t) at 7 h [6]: 4.29 µM·h; logP [7]: 2.24; half-life [8]: 13 min; half-life [9]: 25 min; Cmax [11]: 1860 nM; IC50 [12]: 340 nM; half-life [14]: 14 min
CNC(=O)c1cnc(NC(=O)C(C)C)cc1Nc1ccccc1S(C)(=O)=O	–	1100	–	4400	> 2000	5200	–	–
CNC(=O)c1cnc(Nc2cc(C)ccn2)cc1Nc1ccccc1S(C)(=O)=O	9	27	–	21	> 2000	190	6.5	IC50 [3]: 16000 nM
CNC(=O)c1cnc(Nc2ncccn2)cc1Nc1ccccc1C(N)=O	–	> 12500	60	> 12500	–	–	–	–
CNC(=O)c1cnc(Nc2ccc(OC)cn2)cc1Nc1ccccc1S(C)(=O)=O	–	–	–	–	830	–	2.9	–
CNC(=O)c1cnc(Nc2ccc(F)cn2)cc1Nc1ccccc1	0.5	5600	11	5200	–	> 10000	29.3	remaining at 10 min [16]: 65%; remaining at 10 min [17]: 37%; remaining at 10 min [18]: 51%; IC50 [19]: 4500 nM
CNC(=O)c1cnc(Nc2ccccc2)cc1Nc1ccccc1C(N)=O	–	6900	33	7600	–	–	–	–
[2H]C([2H])([2H])NC(=O)c1nnc(Nc2ccc(F)cn2)cc1Nc1ccccc1S(C)(=O)=O	3.4	–	0.58	–	–	200	14.3	half-life [2]: 10 min; half-life [4]: 71 min; AUC(0-t) at 7 h [6]: 11.6 µM·h; logP [7]: 2.77; half-life [8]: 32 min; half-life [9]: 80 min; Cmax [11]: 3890 nM; IC50 [12]: 380 nM; half-life [14]: 50 min
CCNC(=O)c1cnc(Nc2ccc(F)cn2)cc1Nc1ccccc1C(N)=O	–	4100	13	2500	–	–	–	IC50 (JAK3/JAK1): > 12500 nM; IC50 [20]: > 2000 nM; IC50 (JAK2/JAK1): > 12500 nM; IC50 [21]: > 2000 nM; IC50 [22]: > 2000 nM
CNC(=O)c1cnc(Nc2ccc(C)nn2)cc1Nc1ccccc1S(C)(=O)=O	> 12	490	–	320	> 2000	630	< 1.5	IC50 [3]: 43000 nM
